Active and inactive are the calls of the source. Cut-off read from the data, not from the text of the source, for most assays here: actives have a measured Kd and inactives only a lower limit.
How the values were obtained:
[1] = molecular target: T1, Beta-adrenergic receptor kinase 1 (Homo sapiens, UniProt P25098)
T1 sequence (P25098 whole entry): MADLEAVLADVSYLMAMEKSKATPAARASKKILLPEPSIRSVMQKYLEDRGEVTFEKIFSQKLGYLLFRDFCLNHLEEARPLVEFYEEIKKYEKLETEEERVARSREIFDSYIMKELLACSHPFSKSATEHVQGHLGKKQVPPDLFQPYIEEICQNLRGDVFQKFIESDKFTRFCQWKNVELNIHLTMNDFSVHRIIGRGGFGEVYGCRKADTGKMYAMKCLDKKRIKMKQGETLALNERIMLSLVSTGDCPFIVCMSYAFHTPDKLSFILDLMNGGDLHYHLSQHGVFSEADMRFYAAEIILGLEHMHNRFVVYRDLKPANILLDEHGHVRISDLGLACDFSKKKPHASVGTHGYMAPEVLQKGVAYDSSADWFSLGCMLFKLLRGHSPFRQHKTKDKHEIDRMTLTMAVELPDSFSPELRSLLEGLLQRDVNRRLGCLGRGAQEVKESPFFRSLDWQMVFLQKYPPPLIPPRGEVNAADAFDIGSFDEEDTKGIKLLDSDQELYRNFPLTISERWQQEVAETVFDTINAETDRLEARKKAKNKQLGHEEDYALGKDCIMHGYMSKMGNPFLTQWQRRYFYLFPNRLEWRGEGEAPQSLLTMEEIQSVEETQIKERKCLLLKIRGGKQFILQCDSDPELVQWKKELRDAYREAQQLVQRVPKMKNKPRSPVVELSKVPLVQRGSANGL

Obg-like ATPase 1 = Obg-like ATPase 1 (Homo sapiens, UniProt Q9NTK5)
[2] = molecular target: T2, Serine/threonine-protein kinase Nek9 (Homo sapiens, UniProt Q8TD19)
T2 sequence (Q8TD19 whole entry): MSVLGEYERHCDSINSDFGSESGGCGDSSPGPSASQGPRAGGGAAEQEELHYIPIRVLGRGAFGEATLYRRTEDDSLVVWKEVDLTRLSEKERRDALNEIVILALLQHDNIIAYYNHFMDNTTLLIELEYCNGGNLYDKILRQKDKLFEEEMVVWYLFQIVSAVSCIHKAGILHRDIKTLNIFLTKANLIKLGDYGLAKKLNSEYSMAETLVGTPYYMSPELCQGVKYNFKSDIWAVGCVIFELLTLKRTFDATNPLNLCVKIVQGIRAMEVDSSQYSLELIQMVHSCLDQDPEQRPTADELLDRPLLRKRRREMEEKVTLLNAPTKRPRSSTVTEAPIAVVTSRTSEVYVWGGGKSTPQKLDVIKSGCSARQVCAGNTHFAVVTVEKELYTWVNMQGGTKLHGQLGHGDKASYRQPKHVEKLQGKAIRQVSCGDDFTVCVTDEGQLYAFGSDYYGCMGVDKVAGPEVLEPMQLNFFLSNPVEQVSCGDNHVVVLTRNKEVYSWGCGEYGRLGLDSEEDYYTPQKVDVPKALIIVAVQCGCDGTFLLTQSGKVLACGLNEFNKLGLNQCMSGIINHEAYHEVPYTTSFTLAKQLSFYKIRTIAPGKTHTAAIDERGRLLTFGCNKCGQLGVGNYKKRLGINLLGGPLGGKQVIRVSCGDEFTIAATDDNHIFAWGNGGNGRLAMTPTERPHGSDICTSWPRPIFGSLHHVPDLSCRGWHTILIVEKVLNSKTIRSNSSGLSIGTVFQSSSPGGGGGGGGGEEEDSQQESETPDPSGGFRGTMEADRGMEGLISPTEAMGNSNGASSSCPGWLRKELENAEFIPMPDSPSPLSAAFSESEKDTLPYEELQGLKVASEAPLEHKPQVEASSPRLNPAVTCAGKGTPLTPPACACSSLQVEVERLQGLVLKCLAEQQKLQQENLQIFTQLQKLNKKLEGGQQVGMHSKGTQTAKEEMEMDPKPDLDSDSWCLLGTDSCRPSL

[3] = molecular target: Platelet-derived growth factor receptor beta (Homo sapiens, UniProt P09619)
Heme oxygenase 2 = molecular target: T3, Heme oxygenase 2 (Homo sapiens, UniProt P30519)
T3 sequence (P30519 whole entry): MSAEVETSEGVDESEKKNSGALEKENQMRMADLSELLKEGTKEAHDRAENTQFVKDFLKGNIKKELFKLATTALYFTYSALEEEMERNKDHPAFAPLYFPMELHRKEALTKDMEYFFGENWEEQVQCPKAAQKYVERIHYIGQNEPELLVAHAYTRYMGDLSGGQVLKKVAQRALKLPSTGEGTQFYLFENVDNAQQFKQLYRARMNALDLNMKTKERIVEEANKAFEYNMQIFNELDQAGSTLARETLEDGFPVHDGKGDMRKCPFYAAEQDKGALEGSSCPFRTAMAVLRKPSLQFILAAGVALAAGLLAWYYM

[4] = molecular target: 5'-AMP-activated protein kinase catalytic subunit alpha-1 (Homo sapiens, UniProt Q13131)
[5] = molecular target: Tyrosine-protein kinase ABL2 (Homo sapiens, UniProt P42684)
[6] = molecular target: T4, Inhibitor of nuclear factor kappa-B kinase subunit epsilon (Homo sapiens, UniProt Q14164)
T4 sequence (Q14164 whole entry): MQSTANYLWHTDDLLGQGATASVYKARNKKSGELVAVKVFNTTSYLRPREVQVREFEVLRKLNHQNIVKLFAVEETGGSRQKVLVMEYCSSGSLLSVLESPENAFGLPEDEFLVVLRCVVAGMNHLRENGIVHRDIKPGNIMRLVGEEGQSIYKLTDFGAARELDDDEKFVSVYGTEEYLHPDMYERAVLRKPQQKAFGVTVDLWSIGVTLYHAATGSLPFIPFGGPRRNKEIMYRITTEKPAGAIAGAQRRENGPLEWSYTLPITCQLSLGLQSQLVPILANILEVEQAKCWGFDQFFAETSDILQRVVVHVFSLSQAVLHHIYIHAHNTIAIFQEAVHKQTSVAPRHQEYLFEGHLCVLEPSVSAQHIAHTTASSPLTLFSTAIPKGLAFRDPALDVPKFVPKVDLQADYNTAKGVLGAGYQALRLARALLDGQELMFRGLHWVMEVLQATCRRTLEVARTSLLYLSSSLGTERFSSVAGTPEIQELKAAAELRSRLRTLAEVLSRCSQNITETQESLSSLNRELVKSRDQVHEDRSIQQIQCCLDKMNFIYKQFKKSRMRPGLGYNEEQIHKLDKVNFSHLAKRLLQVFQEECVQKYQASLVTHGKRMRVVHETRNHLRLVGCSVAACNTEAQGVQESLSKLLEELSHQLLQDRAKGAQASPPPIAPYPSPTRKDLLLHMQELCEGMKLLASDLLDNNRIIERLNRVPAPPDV
Note: in the data inactive means no Kd found up to 30 µM.

5'-AMP-activated protein kinase catalytic subunit alpha-1, sequence (Q13131 whole entry): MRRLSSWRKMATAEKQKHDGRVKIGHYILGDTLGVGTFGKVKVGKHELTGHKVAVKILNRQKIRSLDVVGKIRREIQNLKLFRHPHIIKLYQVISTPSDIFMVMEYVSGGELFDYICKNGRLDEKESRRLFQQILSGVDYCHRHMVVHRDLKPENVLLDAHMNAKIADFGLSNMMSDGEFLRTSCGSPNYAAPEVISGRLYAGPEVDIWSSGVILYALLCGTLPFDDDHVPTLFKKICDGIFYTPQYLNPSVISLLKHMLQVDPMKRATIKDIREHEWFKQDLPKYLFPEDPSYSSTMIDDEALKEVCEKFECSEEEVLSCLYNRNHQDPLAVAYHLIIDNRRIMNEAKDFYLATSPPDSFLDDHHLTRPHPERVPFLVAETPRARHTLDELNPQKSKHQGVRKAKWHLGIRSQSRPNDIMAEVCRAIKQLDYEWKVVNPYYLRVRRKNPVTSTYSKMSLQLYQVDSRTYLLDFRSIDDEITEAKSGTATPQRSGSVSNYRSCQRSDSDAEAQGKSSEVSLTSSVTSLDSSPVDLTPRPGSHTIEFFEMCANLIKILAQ
Tyrosine-protein kinase ABL2, sequence (P42684 whole entry): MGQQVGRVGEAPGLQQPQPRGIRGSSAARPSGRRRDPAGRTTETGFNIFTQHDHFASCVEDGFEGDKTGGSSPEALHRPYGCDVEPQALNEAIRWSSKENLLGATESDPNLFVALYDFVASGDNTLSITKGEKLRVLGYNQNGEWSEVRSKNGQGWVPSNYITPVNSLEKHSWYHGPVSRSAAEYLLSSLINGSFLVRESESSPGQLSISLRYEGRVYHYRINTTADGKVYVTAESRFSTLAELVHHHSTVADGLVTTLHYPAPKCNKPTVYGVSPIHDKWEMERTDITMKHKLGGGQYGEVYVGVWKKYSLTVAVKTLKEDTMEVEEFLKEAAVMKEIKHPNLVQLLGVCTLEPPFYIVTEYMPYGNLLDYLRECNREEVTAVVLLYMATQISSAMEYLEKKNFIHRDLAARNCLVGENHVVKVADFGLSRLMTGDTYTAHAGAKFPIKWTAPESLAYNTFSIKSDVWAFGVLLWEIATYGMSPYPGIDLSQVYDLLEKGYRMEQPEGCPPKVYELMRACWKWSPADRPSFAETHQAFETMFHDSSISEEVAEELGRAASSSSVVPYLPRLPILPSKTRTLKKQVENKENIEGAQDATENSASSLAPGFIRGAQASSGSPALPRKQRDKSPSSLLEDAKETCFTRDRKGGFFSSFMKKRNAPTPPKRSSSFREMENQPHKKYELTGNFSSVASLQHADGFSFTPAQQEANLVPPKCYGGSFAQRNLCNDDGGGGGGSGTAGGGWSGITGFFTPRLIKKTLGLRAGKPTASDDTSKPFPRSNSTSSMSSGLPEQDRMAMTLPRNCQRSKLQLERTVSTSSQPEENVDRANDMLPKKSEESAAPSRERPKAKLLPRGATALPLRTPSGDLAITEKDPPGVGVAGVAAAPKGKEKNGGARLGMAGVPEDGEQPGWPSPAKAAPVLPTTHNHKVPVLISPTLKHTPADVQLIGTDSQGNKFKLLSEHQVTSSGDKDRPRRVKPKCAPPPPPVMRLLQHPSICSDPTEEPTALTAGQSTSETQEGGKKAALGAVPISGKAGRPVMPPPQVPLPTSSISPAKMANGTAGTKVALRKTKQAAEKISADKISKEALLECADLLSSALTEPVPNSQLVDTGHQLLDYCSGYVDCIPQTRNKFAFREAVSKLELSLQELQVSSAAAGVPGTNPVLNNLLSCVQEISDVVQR
Obg-like ATPase 1, sequence (Q9NTK5 whole entry, looked up): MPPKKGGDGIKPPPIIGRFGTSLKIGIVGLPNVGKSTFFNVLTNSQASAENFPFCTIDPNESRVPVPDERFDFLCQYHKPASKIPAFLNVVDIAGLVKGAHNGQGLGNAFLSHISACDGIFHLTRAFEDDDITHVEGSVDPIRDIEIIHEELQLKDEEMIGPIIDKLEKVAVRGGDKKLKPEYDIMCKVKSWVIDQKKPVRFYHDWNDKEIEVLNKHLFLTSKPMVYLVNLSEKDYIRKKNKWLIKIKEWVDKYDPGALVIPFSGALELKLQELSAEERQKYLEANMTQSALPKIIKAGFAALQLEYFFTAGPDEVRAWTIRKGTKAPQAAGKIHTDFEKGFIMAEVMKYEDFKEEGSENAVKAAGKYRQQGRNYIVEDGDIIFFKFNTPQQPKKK
Platelet-derived growth factor receptor beta, sequence (P09619 whole entry): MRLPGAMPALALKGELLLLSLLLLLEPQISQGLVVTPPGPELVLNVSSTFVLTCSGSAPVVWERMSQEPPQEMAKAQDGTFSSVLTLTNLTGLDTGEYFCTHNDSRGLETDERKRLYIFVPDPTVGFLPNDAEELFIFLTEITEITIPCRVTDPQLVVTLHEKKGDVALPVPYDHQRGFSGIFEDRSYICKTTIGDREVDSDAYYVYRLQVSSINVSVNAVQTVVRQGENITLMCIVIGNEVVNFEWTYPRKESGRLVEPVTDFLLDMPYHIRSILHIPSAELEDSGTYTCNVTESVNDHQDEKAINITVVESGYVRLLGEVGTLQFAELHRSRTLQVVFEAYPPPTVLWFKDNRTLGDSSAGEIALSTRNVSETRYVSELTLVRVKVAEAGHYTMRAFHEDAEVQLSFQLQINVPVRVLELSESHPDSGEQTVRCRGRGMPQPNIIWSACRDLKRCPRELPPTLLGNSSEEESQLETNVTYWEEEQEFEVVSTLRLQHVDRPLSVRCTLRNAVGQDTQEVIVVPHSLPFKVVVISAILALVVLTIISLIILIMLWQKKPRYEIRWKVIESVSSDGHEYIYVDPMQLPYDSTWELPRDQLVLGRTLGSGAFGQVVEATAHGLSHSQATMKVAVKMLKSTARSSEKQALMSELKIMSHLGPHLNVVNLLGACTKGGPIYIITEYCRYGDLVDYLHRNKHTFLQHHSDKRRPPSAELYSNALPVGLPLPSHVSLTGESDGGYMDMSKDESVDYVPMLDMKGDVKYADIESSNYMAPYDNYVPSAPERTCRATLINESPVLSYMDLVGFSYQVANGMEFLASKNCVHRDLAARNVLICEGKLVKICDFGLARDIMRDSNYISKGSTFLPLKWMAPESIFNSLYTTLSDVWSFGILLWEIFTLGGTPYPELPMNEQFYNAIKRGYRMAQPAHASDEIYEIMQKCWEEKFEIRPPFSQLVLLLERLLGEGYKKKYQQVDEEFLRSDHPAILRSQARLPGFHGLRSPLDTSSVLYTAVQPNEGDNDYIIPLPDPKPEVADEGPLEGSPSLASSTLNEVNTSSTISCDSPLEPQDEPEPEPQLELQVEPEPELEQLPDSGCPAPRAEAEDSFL

| SMILES | Kd [1] | Kd (Obg-like ATPase 1) | Kd [2] | Kd [3] | Kd (Heme oxygenase 2) | Kd [4] | Kd [5] | Kd [6] |
| --- | --- | --- | --- | --- | --- | --- | --- | --- |
| CC(=O)c1cnc2ccc(-c3cc(Cl)c(O)c(Cl)c3)nc2c1N[C@H]1CC[C@H](CN(C)C)CC1 | > 30 µM (inactive) | > 30 µM (inactive) | > 30 µM (inactive) | 0.103 µM (active) | > 30 µM (inactive) |  |  |  |
| CCNC(=O)C#Cc1ccc2c(c1)NC(=O)/C2=C(\Nc1ccc(CN(C)C)cc1)c1ccccc1 | > 30 µM (inactive) | > 30 µM (inactive) | > 30 µM (inactive) |  | > 30 µM (inactive) | 3.05 µM (active) | 1.48 µM (active) | 0.408 µM (active) |
| C=CC(=O)N1CCC[C@H](n2c(=O)n(-c3ccc(Oc4ccccc4)cc3)c3c(N)ncnc32)C1 | > 30 µM (inactive) | > 30 µM (inactive) | > 30 µM (inactive) | > 30 µM (inactive) | > 30 µM (inactive) | > 30 µM (inactive) | > 30 µM (inactive) | > 30 µM (inactive) |
| Cc1nc2cc(-c3nn(C(C)C)c4ncnc(N)c34)ccc2o1 | > 30 µM (inactive) | > 30 µM (inactive) | > 30 µM (inactive) |  | > 30 µM (inactive) | > 30 µM (inactive) | > 30 µM (inactive) | > 30 µM (inactive) |
| COCc1c(-c2ccc(NC(=O)Nc3cc(C(F)(F)F)ccc3F)c(F)c2)c2c(N)ncnn2c1CN1CCOCC1 | > 30 µM (inactive) | > 30 µM (inactive) | > 30 µM (inactive) | > 30 µM (inactive) | > 30 µM (inactive) | > 30 µM (inactive) | > 30 µM (inactive) | > 30 µM (inactive) |
| COc1cc(Nc2ncc3c(n2)-c2ccc(Cl)cc2C(c2c(F)cccc2OC)=NC3)ccc1C(=O)O [ALISERTIB] | > 30 µM (inactive) | > 30 µM (inactive) | > 30 µM (inactive) | > 30 µM (inactive) | > 30 µM (inactive) |  |  |  |
| Cc1nc(NC(=O)N2CCC[C@H]2C(N)=O)sc1-c1ccnc(C(C)(C)C(F)(F)F)c1 [ALPELISIB] | > 30 µM (inactive) | > 30 µM (inactive) | > 30 µM (inactive) | > 30 µM (inactive) | > 30 µM (inactive) | > 30 µM (inactive) | > 30 µM (inactive) | > 30 µM (inactive) |
| Cc1csc(-c2nnc(Nc3ccc(Oc4ncccc4-c4ccnc(N)n4)cc3)c3ccccc23)c1 [AMG-900] | > 30 µM (inactive) | > 30 µM (inactive) | > 30 µM (inactive) | > 30 µM (inactive) | > 30 µM (inactive) | > 30 µM (inactive) | > 30 µM (inactive) | > 30 µM (inactive) |
| O=C(Nc1c[nH]nc1-c1nc2cc(CN3CCOCC3)ccc2[nH]1)NC1CC1 [AT-9283] | > 30 µM (inactive) | > 30 µM (inactive) |  | > 30 µM (inactive) | > 30 µM (inactive) | 0.05 µM (active) | 1.08 µM (active) | 0.215 µM (active) |
| COc1cc2ncnc(Oc3cccc(NC(=O)Nc4cc(C(C)(C)C(F)(F)F)on4)c3)c2cc1OC [CEP-32496] | > 30 µM (inactive) | > 30 µM (inactive) | > 30 µM (inactive) |  | > 30 µM (inactive) | > 30 µM (inactive) | 0.03 µM (active) | > 30 µM (inactive) |
| CC(C)(C)c1nc(-c2cccc(NS(=O)(=O)c3c(F)cccc3F)c2F)c(-c2ccnc(N)n2)s1 [DABRAFENIB] | > 30 µM (inactive) | > 30 µM (inactive) | 0.053 µM (active) |  | > 30 µM (inactive) |  | 0.305 µM (active) | > 30 µM (inactive) |
| Cc1nc2cc(-n3ncc(C(=O)c4cc5ccccc5[nH]4)c3N)ccc2[nH]1 [FGFR INHIBITOR DEBIO 1347] | > 30 µM (inactive) | > 30 µM (inactive) | > 30 µM (inactive) | > 30 µM (inactive) |  | > 30 µM (inactive) | > 30 µM (inactive) | > 30 µM (inactive) |
| NC1(c2ccc(-c3nc4ccn5c(=O)[nH]nc5c4cc3-c3ccccc3)cc2)CCC1 [MK-2206] | > 30 µM (inactive) | > 30 µM (inactive) | > 30 µM (inactive) | > 30 µM (inactive) |  | > 30 µM (inactive) | > 30 µM (inactive) | > 30 µM (inactive) |
| CCOc1cc2ncc(C#N)c(Nc3ccc(F)c(Cl)c3)c2cc1NC(=O)/C=C/CN(C)C [PELITINIB] | > 30 µM (inactive) | > 30 µM (inactive) | > 30 µM (inactive) | > 30 µM (inactive) | > 30 µM (inactive) | > 30 µM (inactive) |  | > 30 µM (inactive) |
| CC(=O)NCC(=O)N1[C@@H]2CC[C@H]1c1ccc(Nc3ncc(C(F)(F)F)c(NC4CCC4)n3)cc12 [PF-03814735] | > 30 µM (inactive) | > 30 µM (inactive) | > 30 µM (inactive) |  | > 30 µM (inactive) |  | > 30 µM (inactive) |  |
| CNC(=O)c1cc(Oc2ccc(NC(=O)Nc3cc(C(C)(C)C)nn3-c3ccc4ncccc4c3)c(F)c2)ccn1 [REBASTINIB] | > 30 µM (inactive) | > 30 µM (inactive) |  | > 30 µM (inactive) | > 30 µM (inactive) | > 30 µM (inactive) | 0.135 µM (active) | > 30 µM (inactive) |
| CCS(=O)(=O)c1cccc(-c2cc(C(=O)NC3CCN(C)CC3)c(C)c3[nH]c4ncc(C)cc4c23)c1 [TAK-901] | > 30 µM (inactive) | > 30 µM (inactive) | > 30 µM (inactive) | 4.59 µM (active) | > 30 µM (inactive) |  | 0.422 µM (active) | > 30 µM (inactive) |
| Cn1ncc(Cl)c1-c1cc(C(=O)N[C@H](CN)Cc2ccc(F)c(F)c2)oc1Cl [UPROSERTIB] | > 30 µM (inactive) | > 30 µM (inactive) | > 30 µM (inactive) | > 30 µM (inactive) |  | > 30 µM (inactive) | > 30 µM (inactive) | > 30 µM (inactive) |

— ChEMBL document CHEMBL3991601, “The target landscape of clinical kinase drugs” (Science, 2017)
